Test results from the CheMixHub viscosity set.
± gives the uncertainty stated by the source.

Assay: xn = mol fraction of the nth substance listed

CNC=O + CC(=O)O
viscosity [mPa·s], 100 kPa
Conditions	x1 = 0.1097	x1 = 0.183	x1 = 0.2628	x1 = 0.3502	x1 = 0.4802	x1 = 0.5897	x1 = 0.6693	x1 = 0.7549	x1 = 0.8961
303.15 K	1.044	1.086	1.132	1.183	1.259	1.324	1.372	1.426	1.517
308.15 K	0.9723	1.011	1.054	1.1	1.169	1.228	1.272	1.32	1.402
313.15 K	0.9175	0.9534	0.992	1.033	1.095	1.148	1.187	1.229	1.301
318.15 K	0.8728	0.9059	0.9409	0.978	1.033	1.08	1.114	1.151	1.213

C[N+]1(CC2CO2)CCCC1=O.[Cl-] (stereo not given) + CC(=O)O
viscosity [mPa·s], 101 kPa
Conditions	293.15 K	298.15 K	303.15 K	308.15 K	313.15 K
x1 = 0.0373	1.592 ± 0.035	1.448 ± 0.032	1.322 ± 0.029	1.213 ± 0.026	1.115 ± 0.024
x1 = 0.0644	1.83 ± 0.04	1.652 ± 0.036	1.5 ± 0.033	1.371 ± 0.03	1.256 ± 0.028
x1 = 0.1087	2.234 ± 0.049	2 ± 0.044	1.802 ± 0.04	1.632 ± 0.036	1.489 ± 0.033
x1 = 0.2041	2.728 ± 0.06	2.425 ± 0.053	2.172 ± 0.048	1.959 ± 0.043	1.776 ± 0.039
x1 = 0.3022	2.803 ± 0.062	2.492 ± 0.055	2.235 ± 0.05	2.018 ± 0.045	1.831 ± 0.041
x1 = 0.4053	2.587 ± 0.058	2.314 ± 0.052	2.087 ± 0.047	1.892 ± 0.042	1.723 ± 0.038
x1 = 0.5054	2.324 ± 0.052	2.095 ± 0.047	1.9 ± 0.043	1.731 ± 0.039	1.586 ± 0.036
x1 = 0.605	2.107 ± 0.048	1.908 ± 0.043	1.738 ± 0.039	1.591 ± 0.036	1.465 ± 0.033
x1 = 0.7073	1.919 ± 0.044	1.746 ± 0.04	1.597 ± 0.036	1.469 ± 0.034	1.356 ± 0.031
x1 = 0.8065	1.817 ± 0.042	1.657 ± 0.038	1.521 ± 0.035	1.402 ± 0.032	1.297 ± 0.03
x1 = 0.9047	1.752 ± 0.041	1.602 ± 0.037	1.473 ± 0.034	1.36 ± 0.032	1.261 ± 0.029

OC[C@@H](O)[C@@H](O)[C@H](O)[C@@H](O)CO + CC(=O)[O-].CC[n+]1ccn(C)c1
Conditions	viscosity [mPa·s]
313.15 K, 100 kPa, x1 = 0.5	572.5 ± 30

CNC=O + CC(=O)c1ccccc1
viscosity [mPa·s], 101 kPa
Conditions	x1 = 0.0867	x1 = 0.176	x1 = 0.268	x1 = 0.3629	x1 = 0.4607	x1 = 0.5617	x1 = 0.6659	x1 = 0.7736	x1 = 0.8849
303.15 K	1.522 ± 0.072	1.532 ± 0.072	1.541 ± 0.073	1.549 ± 0.073	1.556 ± 0.073	1.564 ± 0.074	1.571 ± 0.074	1.578 ± 0.074	1.583 ± 0.074
308.15 K	1.423 ± 0.068	1.43 ± 0.068	1.436 ± 0.068	1.442 ± 0.068	1.447 ± 0.069	1.452 ± 0.069	1.456 ± 0.069	1.46 ± 0.069	1.462 ± 0.069
313.15 K	1.279 ± 0.062	1.289 ± 0.062	1.299 ± 0.062	1.307 ± 0.063	1.316 ± 0.063	1.325 ± 0.064	1.333 ± 0.064	1.34 ± 0.064	1.347 ± 0.064
318.15 K	1.133 ± 0.055	1.148 ± 0.056	1.162 ± 0.057	1.176 ± 0.057	1.19 ± 0.058	1.204 ± 0.058	1.218 ± 0.059	1.231 ± 0.059	1.243 ± 0.06

CC(C)OCCO + CC(C)O
298.15 K, 101.33 kPa
Conditions	viscosity [mPa·s]
x1 = 0.0272	2.051 ± 0.016
x1 = 0.0618	2.009 ± 0.015
x1 = 0.0768	1.995 ± 0.015
x1 = 0.092	1.986 ± 0.015
x1 = 0.1373	1.959 ± 0.015
x1 = 0.1766	1.941 ± 0.015
x1 = 0.2006	1.929 ± 0.015
x1 = 0.2467	1.914 ± 0.016
x1 = 0.2976	1.9 ± 0.016
x1 = 0.3502	1.899 ± 0.016
x1 = 0.3949	1.902 ± 0.017
x1 = 0.4259	1.903 ± 0.017
x1 = 0.4507	1.908 ± 0.017
x1 = 0.5015	1.918 ± 0.018
x1 = 0.5529	1.93 ± 0.019
x1 = 0.6181	1.948 ± 0.019
x1 = 0.6764	1.971 ± 0.02
x1 = 0.73	1.991 ± 0.021
x1 = 0.7886	2.014 ± 0.022
x1 = 0.8718	2.049 ± 0.024
x1 = 0.9241	2.064 ± 0.025
x1 = 0.9782	2.083 ± 0.026

COC(=O)c1ccccc1 + CC(C)O
viscosity [mPa·s], 101 kPa
Conditions	x1 = 0.0634	x1 = 0.1321	x1 = 0.2069	x1 = 0.2887	x1 = 0.3784	x1 = 0.4773	x1 = 0.5868	x1 = 0.7089	x1 = 0.8456
303.15 K	1.655 ± 0.04	1.656 ± 0.04	1.658 ± 0.04	1.659 ± 0.04	1.661 ± 0.04	1.663 ± 0.04	1.664 ± 0.04	1.666 ± 0.04	1.668 ± 0.04
308.15 K	1.495 ± 0.037	1.495 ± 0.037	1.496 ± 0.037	1.496 ± 0.037	1.497 ± 0.037	1.498 ± 0.037	1.498 ± 0.037	1.499 ± 0.037	1.5 ± 0.037
313.15 K	1.323 ± 0.033	1.326 ± 0.033	1.33 ± 0.033	1.335 ± 0.033	1.339 ± 0.033	1.344 ± 0.033	1.35 ± 0.033	1.356 ± 0.033	1.363 ± 0.034
318.15 K	1.189 ± 0.03	1.196 ± 0.03	1.204 ± 0.03	1.212 ± 0.03	1.221 ± 0.03	1.231 ± 0.03	1.242 ± 0.031	1.254 ± 0.031	1.267 ± 0.031
323.15 K	1.074 ± 0.027	1.085 ± 0.027	1.097 ± 0.028	1.11 ± 0.028	1.123 ± 0.028	1.14 ± 0.029	1.157 ± 0.029	1.177 ± 0.029	1.198 ± 0.03

CCCCCCCCN(CCCCCCCC)CCCCCCCC + CC(CC(C)(C)C)CC(C)(C)C
298.15 K, 101.33 kPa
Conditions	viscosity [mPa·s]
x1 = 0.052	1.424 ± 0.033
x1 = 0.11	1.675 ± 0.038
x1 = 0.173	1.982 ± 0.044
x1 = 0.527	4.26 ± 0.1

CNC=O + CC(O)CO
viscosity [mPa·s], 101 kPa
Conditions	x1 = 0.0968	x1 = 0.1216	x1 = 0.2366	x1 = 0.347	x1 = 0.4526	x1 = 0.5534	x1 = 0.6498	x1 = 0.7432	x1 = 0.832	x1 = 0.917
293.15 K	39.02 ± 0.89	36.25 ± 0.83	22.68 ± 0.54	14.7 ± 0.36	9.934 ± 0.25	6.941 ± 0.19	5.057 ± 0.15	3.792 ± 0.11	2.933 ± 0.087	2.349 ± 0.07
303.15 K	22.78 ± 0.56	21.44 ± 0.52	14.24 ± 0.35	9.752 ± 0.25	6.915 ± 0.19	5.053 ± 0.15	3.822 ± 0.11	2.965 ± 0.088	2.363 ± 0.071	1.935 ± 0.059
313.15 K	14.24 ± 0.35	13.56 ± 0.34	9.479 ± 0.24	6.811 ± 0.18	5.034 ± 0.14	3.819 ± 0.11	2.986 ± 0.088	2.381 ± 0.071	1.949 ± 0.059	1.631 ± 0.05
323.15 K	9.382 ± 0.24	9.048 ± 0.23	6.609 ± 0.18	4.951 ± 0.14	3.793 ± 0.11	2.97 ± 0.088	2.388 ± 0.071	1.957 ± 0.059	1.635 ± 0.05	1.397 ± 0.044

CNC=O + CCC(=O)O
viscosity [mPa·s], 100 kPa
Conditions	x1 = 0.1115	x1 = 0.1858	x1 = 0.2665	x1 = 0.3545	x1 = 0.4849	x1 = 0.5942	x1 = 0.6734	x1 = 0.7583	x1 = 0.8978
303.15 K	1.025	1.069	1.116	1.169	1.248	1.315	1.365	1.42	1.514
308.15 K	0.9555	0.9958	1.039	1.087	1.159	1.22	1.265	1.315	1.399
313.15 K	0.8989	0.9358	0.9757	1.019	1.083	1.138	1.179	1.223	1.298
318.15 K	0.8503	0.8846	0.9214	0.9605	1.019	1.068	1.104	1.143	1.209

C[N+]1(CC2CO2)CCCC1=O.[Cl-] (stereo not given) + CCC(=O)O
viscosity [mPa·s], 101 kPa
Conditions	293.15 K	298.15 K	303.15 K	308.15 K	313.15 K
x1 = 0.0325	1.305 ± 0.029	1.209 ± 0.026	1.12 ± 0.025	1.041 ± 0.023	0.971 ± 0.021
x1 = 0.0638	1.577 ± 0.034	1.45 ± 0.032	1.335 ± 0.029	1.233 ± 0.027	1.144 ± 0.025
x1 = 0.1089	1.836 ± 0.04	1.673 ± 0.037	1.533 ± 0.034	1.41 ± 0.031	1.301 ± 0.029
x1 = 0.205	2.333 ± 0.051	2.104 ± 0.046	1.909 ± 0.042	1.738 ± 0.038	1.592 ± 0.035
x1 = 0.3036	2.544 ± 0.056	2.285 ± 0.051	2.064 ± 0.046	1.876 ± 0.042	1.712 ± 0.038
x1 = 0.4076	2.537 ± 0.057	2.278 ± 0.051	2.059 ± 0.046	1.87 ± 0.042	1.707 ± 0.038
x1 = 0.5049	2.288 ± 0.051	2.069 ± 0.047	1.882 ± 0.042	1.718 ± 0.039	1.578 ± 0.036
x1 = 0.6079	2.088 ± 0.047	1.895 ± 0.043	1.729 ± 0.039	1.586 ± 0.036	1.462 ± 0.033
x1 = 0.7037	1.935 ± 0.044	1.763 ± 0.04	1.613 ± 0.037	1.485 ± 0.034	1.372 ± 0.031
x1 = 0.8065	1.808 ± 0.042	1.65 ± 0.038	1.516 ± 0.035	1.399 ± 0.032	1.296 ± 0.03
x1 = 0.9028	1.643 ± 0.038	1.507 ± 0.035	1.39 ± 0.032	1.286 ± 0.03	1.194 ± 0.028

CCCCOCCO + CCC(C)=O
298.15 K, 101 kPa
Conditions	viscosity [mPa·s]
x2 = 0.154	2.106 ± 0.015
x2 = 0.2906	1.609 ± 0.011
x2 = 0.4126	1.234 ± 0.009
x2 = 0.5221	0.939 ± 0.007
x2 = 0.6211	0.727 ± 0.005
x2 = 0.7108	0.607 ± 0.004
x2 = 0.7927	0.519 ± 0.004
x2 = 0.8676	0.466 ± 0.003
x2 = 0.9365	0.416 ± 0.003

CCCCCCCCN(CCCCCCCC)CCCCCCCC + CCCCCC
Conditions	viscosity [mPa·s]
298 K, 101.3 kPa, x1 = 0.00584	0.331 ± 0.011
